# Measurements published in publication PMC12165799, “Antimicrobial peptide developed with machine learning sequence optimization targets drug resistant Staphylococcus aureus in mice” (The Journal of Clinical Investigation, 2025).
# Key:
# Type in all cases: cell-based, Staphylococcus aureus
# [1] = test system: S. aureus VRS1 (VRSA) exponential and persister cells; experiment: S. aureus persister cell and time-kill assays (VRS1); settings: 10 × MIC
# Protocol: 305 Minimal inhibitory concentration (MIC) assay
# We made serial dilutions of 10×
# We determined the MIC using OD600
# Accordingly, we added 150 mM NaCl,
# 319 established protocol (5).
# 323 aureus VRS1) in PBS. To assess the killing kinetics of CIT-8 in persister cells, we added 1 ml of
# 324 cell suspension to the wells of a 2-ml deep-well assay block (Cat no. 3960, Corning, NY, USA)
# We also included ciprofloxacin (at 10 μg/ml) for S.
# 326 aureus MW2 and linezolid (100 μg/ml) for S. aureus VRS1 as antibiotic controls. Additionally,
# 327 we included bithionol (at 10 μg/ml) as a positive control, known for its ability to kill stationary
# 328 phase persister cells (6). We incubated the plates at 37°C, with shaking at 225 rpm. At specific
# 329 times (0, 15, 30, 60, and 120 min), we collected 10 μl samples, diluted them serially, and then
# 330 plated them on tryptic soy agar (TSA) (BD Difco, NJ, USA) plates. We incubated the TSA plates
# 331 for 18 hours at 37°C for colony counting. We performed these experiments in duplicate. As a
# 332 comparison, we prepared the exponential cells of S. aureus MW2 and VRS1 in PBS and analyzed
# 333 their killing kinetics in the same manner as described for persister cells.
# [2] = test system: S. aureus MW2 membrane; experiment: Membrane depolarization, DiBAC4(3); settings: S. aureus MW2, 32 μg/mL
# [3] = test system: S. aureus MW2; experiment: ATP release assay (luciferase); settings: 32 μg/mL, 30 minutes
# Protocol: 484 min at room temperature in the dark based on a previously established protocol (8). We added 90
# 485 µl of the dye/bacteria mixture to 10 μl of serially diluted 10× peptide concentration in black, 96-
# 486 well plates (Cat. no. 3904, Corning, NY, USA) and incubated the plates for 1 hour at room
# 487 temperature. We measured the fluorescence with excitation and emission wavelengths of 485 nm
# 488 and 525 nm, respectively in endpoint assay mode using a SpectraMax i3x (Molecular Devices,
# 489 CA, USA) fluorescence reader.
# 490 Propidium iodide-based membrane permeability
# 491 We used a propidium iodide (Thermo Fisher Scientific, MA, USA) fluorescence-based
# 492 bacterial permeation assay to establish membrane-oriented interactions with the designed peptides
# 493 based on a previously established protocol (8). We prepared exponential phase S. aureus MW2
# 494 bacteria and diluted to OD600 = 0.4 in PBS. We added PI dye (final concentration = 2 µM) to the
# 495 bacteria in 1:10 serial dilutions in black, 96-well plates (Cat. no. 3904, Corning, NY, USA) and
# 496 incubated the plates for 1 hour at room temperature. We then measured the fluorescence with an
# 497 excitation wavelength of 584 nm and an emission wavelength of 620 nm in endpoint assay mode
# 498 using a SpectraMax i3x (Molecular Devices, CA, USA) fluorescence reader.
# 501 To determine the ATP leakage potential of the peptides, we employed a luciferase-based […]
# [4] = test system: S. aureus MW2; experiment: RNAseq differential gene expression; settings: 0.5× MIC, 30 min
# Protocol: 553 For RNAseq studies, we followed the recommended procedure by Novogene (Sacramento,
# 554 CA, USA) (22). In brief, we used exponential cultures of S. aureus MW2 grown in TSB medium
# 555 adjusted to OD600=0.4. We treated 10 ml of the bacterial culture with 0.5× MIC of CIT-8 or water
# 556 (as a negative control) for 30 min at 37°C (180 rpm). After that, we washed the bacteria three times
# 557 with PBS and stored the pellet at -80°C. We isolated total RNA from the pellet and checked the
# 558 purity using the NanoPhotometer® spectrophotometer (Implen, CA, USA). We assessed RNA
# 559 integrity and concentration using the RNA Nano 6000 Assay Kit following manufacturer
# 560 instructions in a Bioanalyzer 2100 system (Agilent Technologies, CA, USA). We evaluated RNA
# 561 degradation and contamination on 1% agarose gels. To prepare libraries for transcriptome
# 562 sequencing, we used 1 µg RNA per sample as input material and generated sequencing libraries
# 563 using NEBNext® UltraTM RNA Library Prep Kit for Illumina® (NEB, MA, USA) following
# 564 manufacturer’s recommendations and added index codes to attribute sequences to each sample.
# 565 Briefly, we purified mRNA from total RNA using poly-T oligo-attached magnetic beads, followed
# 566 by fragmentation using divalent cations under elevated temperature in NEBNext First Strand
# 567 Synthesis Reaction Buffer (5×). To synthesize cDNA, we used random hexamer primers and M-
# 568 MuLV Reverse Transcriptase (RNase H-) to create the first strand, followed by DNA Polymerase
# 569 I and RNase H to create the second strand (23). The remaining overhangs were converted into
# 570 blunt ends using exonuclease/polymerase activities. We adenylated the 3’ ends of the DNA
# 571 fragments, and further ligated NEBNext Adaptors with hairpin loop structures to prepare for
# 572 hybridization. To select cDNA fragments of preferred length (150-200 bp), we purified the whole
# 573 library fragments with AMPure XP system (Beckman Coulter, CA, USA). Next, to the size-
# 574 selected, adaptor ligated cDNA, we added 3 µl USER Enzyme (NEB, MA, USA) at 37°C for 15
# 575 min followed by 5 min at 95°C before carrying out the polymerase chain reaction (PCR). We
# 576 performed the PCR with Phusion High-Fidelity DNA polymerase, Universal PCR primers, and
# 577 Index (X) Primer. Finally, we purified the PCR products with an AMPure XP system (Beckman
# 578 Coulter, CA, USA) and library quality was assessed on the Agilent Bioanalyzer 2100 system
# 579 (Agilent Technologies, CA, USA). […]
substance,measurement,setting,value
H-GLFKVIKKLLKVI-NH2 [CIT-8],Time to eradication of exponential and VRSA persister cells,[1],≤ 120 min
same,"Membrane depolarization, DIBAC4(3) fluorescence",[2],rapid increase in DIBAC4(3) fluorescence
same,"ATP leakage, luminescence",[3],increased luminescence levels
same,Downregulation of tRNAGln,[4],8.5 fold
same,Downregulation of tRNAarg,[4],7.7 fold
same,Downregulation of tRNAcys,[4],6.8 fold
same,Downregulation of tRNAser,[4],8.4 fold
same,Upregulation of pdxS,[4],5.3 fold
same,Upregulation of purH,[4],3.6 fold
same,Upregulation of purL,[4],5.2 fold
same,Upregulation of purQ,[4],5.0 fold
same,Upregulation of purS,[4],5.0 fold
same,Number of genes downregulated by at least 2-fold,[4]; P < 0.05,267 genes
same,Number of genes upregulated by more than 2-fold,[4]; P < 0.05,179 genes
